What is called IC50 is the midpoint of a concentration-inhibition curve.

The text below walks through data of patent publication US20240218022A1, “ANTI-VISTA MACROCYCLIC PEPTIDES AND COMPOSITIONS” (BRISTOL-MYERS SQUIBB COMPANY, priority 2022, published 2024).

The target in this assay is T1, mouse VISTA (mVISTA) (Mus musculus, UniProt Q9D659).
T1 construct: expressed in transfected cells; host or cells: Human embryonic kidney 293T cells
T1 sequence (Q9D659 33-308): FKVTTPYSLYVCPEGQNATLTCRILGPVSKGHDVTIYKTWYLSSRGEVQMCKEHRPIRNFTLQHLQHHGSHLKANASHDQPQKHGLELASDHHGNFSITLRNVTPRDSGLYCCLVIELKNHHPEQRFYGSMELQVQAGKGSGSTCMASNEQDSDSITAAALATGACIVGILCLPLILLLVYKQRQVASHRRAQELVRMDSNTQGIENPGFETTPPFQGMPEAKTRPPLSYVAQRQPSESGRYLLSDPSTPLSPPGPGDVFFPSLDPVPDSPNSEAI
As to the kind of experiment: Cell-Based Binding High-Content Assay For mVISTA (HC CBA mVISTA). In a few lines:
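293T cells expressing mouse VISTA, with compounds added either after seeding ("no wash") or before seeding and then washed out after 1 h. Biotinylated peptide 2 nM for 30 min at room temperature, then detection with Alexa 647–streptavidin. After fixation with Hoechst stain, plates were high-content imaged; IC50 from four-parameter logistic fit.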

Where [1] appears, read: 293T cells expressing mouse VISTA, competition with biotinylated peptide (2 nM), read-out: HC CBA mVISTA IC50.

Where two headings read alike, the source gives them in different places. Starred links: 1 amine or outer side, 2 acyl side, 3 side chain; linkers in the order of their positions; H or OH if unused. Positions of bridges follow the written chain, without caps; N, C: chain ends. Non-standard residues stand in square brackets, D forms with d. Residues, ends and D or L forms follow the SMILES beside them. ξ: configuration not given here. N(3-phenylpropyl)Gly = O=C(O)CNCCCc1ccccc1; Phe(3-Me) = Cc1cccc(C[C@H](N)C(=O)O)c1; γGlu = O=C(O)[C@H](CCC(=O)[*:2])N[*:1]; 2Nal = N[C@@H](Cc1ccc2ccccc2c1)C(=O)O; βAsp = O=C(O)[C@H](CC(=O)[*:2])N[*:1]; Ahp(2) = CCCCC[C@H](N)C(=O)O; NMeNle = CCCC[C@H](NC)C(=O)O; Tle = CC(C)(C)[C@H](N)C(=O)O; NHexGly = CCCCCCNCC(=O)O; Nle = CCCC[C@H](N)C(=O)O; Orn = NCCC[C@H](N)C(=O)O; Aun = NCCCCCCCCCCC(=O)O; ξD = NC(CC(=O)O)C(=O)O; AEEA = NCCOCCOCC(=O)O; ξS = NC(CO)C(=O)O

For the compound `CCCCCCN1CC(=O)N[C@@H](Cc2ccc(O)cc2)C(=O)N[C@@H](CCCC)C(=O)N[C@@H](CC(=O)O)C(=O)N[C@@H](CCCNC(=N)N)C(=O)N[C@@H](CC(C)C)C(=O)N[C@@H](CCCCC)C(=O)N2CCC[C@H]2C(=O)N[C@@H](C(C)C)C(=O)N[C@@H](CC(=O)O)C(=O)N[C@H](C(=O)NC(CO)C(N)=O)CSCC(=O)N[C@@H](Cc2ccccc2)C(=O)N[C@@H](Cc2cccc(C)c2)C(=O)N[C@@H](CC(=O)O)C1=O` (some centres unmarked) [compound 1330] ({CH2CO}-F[Phe(3-Me)]D[NHexGly]Y[Nle]DRL[Ahp(2)]PVDC[ξS]-NH2; thioether N-14), the IC50 (read-out: HC CBA mVISTA IC50) was found to be 16.8 nM.
Take `CCCCCCN1CC(=O)N[C@@H](Cc2ccc(O)cc2)C(=O)N[C@@H](CCCC)C(=O)N[C@@H](CC(=O)O)C(=O)N[C@@H](CCCNC(=N)N)C(=O)N[C@@H](CC(C)C)C(=O)N[C@@H](CCCCC)C(=O)N2CCC[C@H]2C(=O)N[C@@H](C(C)C)C(=O)N[C@@H](CC(=O)O)C(=O)N[C@H](C(=O)NC(CC(=O)O)C(N)=O)CSCC(=O)N[C@@H](Cc2ccccc2)C(=O)N[C@@H](Cc2cccc(C)c2)C(=O)N[C@@H](CC(=O)O)C1=O` (some centres unmarked) [compound 1327] ({CH2CO}-F[Phe(3-Me)]D[NHexGly]Y[Nle]DRL[Ahp(2)]PVDC[ξD]-NH2; thioether N-14): the IC50 (read-out: HC CBA mVISTA IC50) was found to be 13.9 nM.
For the compound `CCCCCCN1CC(=O)N[C@@H](Cc2ccc(O)cc2)C(=O)N[C@@H](CCCCC)C(=O)N[C@@H](CC(N)=O)C(=O)N[C@@H](CCCNC(=N)N)C(=O)N(C)[C@@H](CCCC)C(=O)N[C@@H](CCCCC)C(=O)N2CCC[C@H]2C(=O)N[C@@H](C(C)C)C(=O)N[C@@H](CC(=O)O)C(=O)N[C@H](C(=O)N[C@@H](CO)C(N)=O)CSCC(=O)N[C@@H](Cc2ccc3ccccc3c2)C(=O)N[C@@H](Cc2c[nH]c3ccccc23)C(=O)N[C@@H](CC(=O)O)C1=O` [compound 1254] ({CH2CO}-[2Nal]WD[NHexGly]Y[Ahp(2)]NR[NMeNle][Ahp(2)]PVDCS-NH2; thioether N-14), under “cell-based binding high-content assay, mVISTA, the 15th table, read-out: HC CBA mVISTA IC50”, the IC50 stood at 15.7 nM.
As to `CCCCC[C@@H]1NC(=O)[C@H](CCCC)N(C)C(=O)[C@H](CCCNC(=N)N)NC(=O)[C@H](CC(N)=O)NC(=O)[C@H](CC(C)C)NC(=O)[C@H](Cc2ccc(O)cc2)NC(=O)CN(CCCc2ccccc2)C(=O)[C@H](CC(=O)O)NC(=O)[C@H](Cc2ccc(O)cc2)NC(=O)[C@H](Cc2ccccc2)NC(=O)CSC[C@@H](C(=O)NCC(N)=O)NC(=O)[C@H](CO)NC(=O)[C@H](C(C)C)NC(=O)[C@@H]2CCCN2C1=O` [Example 1086] ({CH2CO}-FYD[N(3-phenylpropyl)Gly]YLNR[NMeNle][Ahp(2)]PVSCG-NH2; thioether N-14), the IC50 under setting [1] came to 40.7 nM.
For the compound `CCCCCCN1CC(=O)N[C@@H](Cc2ccc(O)cc2)C(=O)N[C@@H](CC(C)C)C(=O)N[C@@H](CC(N)=O)C(=O)N[C@@H](CCCNC(=N)N)C(=O)N(C)[C@@H](CCCC)C(=O)N[C@@H](CCCCC)C(=O)N2CCC[C@H]2C(=O)N[C@@H](C(C)(C)C)C(=O)N[C@@H](CO)C(=O)N[C@H](C(=O)N[C@@H](CCC(=O)NCCCCCCCCCCC(=O)O)C(=O)O)CSCC(=O)N[C@@H](Cc2ccccc2)C(=O)N[C@@H](Cc2c[nH]c3ccccc23)C(=O)N[C@@H](CC(=O)O)C1=O` [Example 2131] ({CH2CO}-FWD[NHexGly]YLNR[NMeNle][Ahp(2)]P[Tle]SC[γGlu][Aun]-OH; thioether N-14), the IC50 (read-out: HC CBA mVISTA IC50) was determined as 38 nM.
Regarding `CCCCCCN1CC(=O)N[C@@H](Cc2ccc(O)cc2)C(=O)N[C@@H](CC(C)C)C(=O)NCC(=O)N[C@@H](CCCNC(=N)N)C(=O)N[C@@H](Cc2ccc(O)cc2)C(=O)N[C@@H](CCCCC)C(=O)N2CCC[C@H]2C(=O)N[C@@H](C(C)C)C(=O)N[C@@H](CC(=O)O)C(=O)N[C@H](C(=O)NCC(N)=O)CSCC(=O)N[C@@H](Cc2ccccc2)C(=O)N[C@@H](Cc2c[nH]c3ccccc23)C(=O)N[C@@H](CC(=O)O)C1=O` [Example 1416] ({CH2CO}-FWD[NHexGly]YLGRY[Ahp(2)]PVDCG-NH2; thioether N-14), the IC50 (read-out: HC CBA mVISTA IC50) came to 51.7 nM.
Turning to `CCCCCCN1CC(=O)N[C@@H](Cc2ccc(O)cc2)C(=O)N[C@@H](CCCC)C(=O)N[C@@H](CC(=O)O)C(=O)N[C@@H](CCCN)C(=O)N(C)[C@@H](CCCC)C(=O)N[C@@H](CCCCC)C(=O)N2CCC[C@H]2C(=O)N[C@@H](C(C)C)C(=O)N[C@@H](CC(=O)O)C(=O)N[C@H](C(=O)N[C@@H](CC(=O)O)C(N)=O)CSCC(=O)N[C@@H](Cc2cccc(C)c2)C(=O)N[C@@H](Cc2c[nH]c3ccccc23)C(=O)N[C@@H](CC(=O)O)C1=O` [compound 1439] ({CH2CO}-[Phe(3-Me)]WD[NHexGly]Y[Nle]D[Orn][NMeNle][Ahp(2)]PVDCD-NH2; thioether N-14), the IC50 (the 19th table, scaffold drawing 22, read-out: HC CBA mVISTA IC50) was found to be 9.3 nM.
In the case of `CCCCCCN1CC(=O)N[C@@H](Cc2ccc(O)cc2)C(=O)N[C@@H](CCCCC)C(=O)N[C@@H](CC(=O)O)C(=O)N[C@@H](CCCNC(=N)N)C(=O)N[C@@H](CC(C)C)C(=O)N[C@@H](CCCCC)C(=O)N2CCC[C@H]2C(=O)N[C@@H](C(C)C)C(=O)N[C@@H](CC(=O)O)C(=O)N[C@H](C(=O)N[C@H](CC(=O)O)C(N)=O)CSCC(=O)N[C@@H](Cc2ccccc2)C(=O)N[C@@H](Cc2ccc(O)cc2)C(=O)N[C@@H](CC(=O)O)C1=O` [Example 1002] ({CH2CO}-FYD[NHexGly]Y[Ahp(2)]DRL[Ahp(2)]PVDC[dD]-NH2; thioether N-14), under setting [1], the IC50 was found to be 14.9 nM.
`CCCCCCN1CC(=O)N[C@@H](Cc2ccc(O)cc2)C(=O)N[C@@H](CCCC)C(=O)N[C@@H](CC(=O)O)C(=O)N[C@@H](CCCN)C(=O)N(C)[C@@H](CCCC)C(=O)N[C@@H](CCCCC)C(=O)N2CCC[C@H]2C(=O)N[C@@H](C(C)(C)C)C(=O)N[C@@H](CO)C(=O)N[C@H](C(=O)N[C@@H](CC(N)=O)C(=O)O)CSCC(=O)N[C@@H](Cc2ccccc2)C(=O)N[C@@H](Cc2c[nH]c3ccccc23)C(=O)N[C@@H](CC(=O)O)C1=O` [Example 1401] ({CH2CO}-FWD[NHexGly]Y[Nle]D[Orn][NMeNle][Ahp(2)]P[Tle]SCN-OH; thioether N-14): the IC50 (read-out: HC CBA mVISTA IC50) is 20.2 nM.
As to `CCCCCCN1CC(=O)N[C@@H](Cc2ccc(O)cc2)C(=O)N[C@@H](CCCC)C(=O)N[C@@H](CC(N)=O)C(=O)N[C@@H](CCCNC(=N)N)C(=O)N(C)[C@@H](CCCC)C(=O)N[C@@H](CCCCC)C(=O)N2CCC[C@H]2C(=O)N[C@@H](C(C)C)C(=O)N[C@@H](CO)C(=O)N[C@H](C(=O)NCC(=O)O)CSCC(=O)N[C@@H](Cc2ccccc2)C(=O)N[C@@H](Cc2c[nH]c3ccccc23)C(=O)N[C@@H](CC(=O)O)C1=O` [Example 1382] ({CH2CO}-FWD[NHexGly]Y[Nle]NR[NMeNle][Ahp(2)]PVSCG-OH; thioether N-14), the IC50 (read-out: HC CBA mVISTA IC50) worked out at 17.2 nM.
For `CCCCCCN1CC(=O)N[C@@H](Cc2ccc(O)cc2)C(=O)N[C@@H](CC(C)C)C(=O)N[C@@H](CC(N)=O)C(=O)N[C@@H](CCCN)C(=O)N(C)[C@@H](CCCC)C(=O)N[C@@H](CCCCC)C(=O)N2CCC[C@H]2C(=O)N[C@@H](C(C)(C)C)C(=O)N[C@@H](CO)C(=O)N[C@H](C(=O)N[C@@H](CC(=O)NCCOCCOCC(=O)N[C@@H](CC(=O)O)C(=O)NCCOCCOCC(=O)NCCCCCCCCCCC(=O)O)C(=O)O)CSCC(=O)N[C@@H](Cc2ccccc2)C(=O)N[C@@H](Cc2cccc(C)c2)C(=O)N[C@@H](CC(=O)O)C1=O` [compound 2077] ({CH2CO}-F[Phe(3-Me)]D[NHexGly]YLN[Orn][NMeNle][Ahp(2)]P[Tle]SC[βAsp][AEEA]D[AEEA][Aun]-OH; thioether N-14), where the note is “cell-based binding high-content assay, mVISTA, read-out: HC CBA miPrISTA IC50”, the IC50 is 33.5 nM.
